Measurements reported in ChEMBL document CHEMBL2021889, “Multipotent MAO and cholinesterase inhibitors for the treatment of Alzheimer's disease: synthesis, pharmacological analysis and molecular modeling of heterocyclic substituted alkyl and cycloalkyl propargyl amine” (Eur J Med Chem, 2012).

Key:
Acetylcholinesterase [1] = target: T1, Acetylcholinesterase (Electrophorus electricus, UniProt O42275)
Description: Inhibition of electric eel AChE using acetylthiocholine iodide as substrate after 15 mins by Ellman's method

Butyrylcholinesterase [2] = target: T2, Butyrylcholinesterase (Equus caballus, UniProt Q9N1N9)
Description: Inhibition of equine serum BChE using butyrylthiocholine iodide as substrate after 15 mins by Ellman's method

[3] = target: T3, Amine oxidase [flavin-containing] A (Rattus norvegicus, UniProt P21396); assay: biochemical
T3 sequence (P21396 whole entry): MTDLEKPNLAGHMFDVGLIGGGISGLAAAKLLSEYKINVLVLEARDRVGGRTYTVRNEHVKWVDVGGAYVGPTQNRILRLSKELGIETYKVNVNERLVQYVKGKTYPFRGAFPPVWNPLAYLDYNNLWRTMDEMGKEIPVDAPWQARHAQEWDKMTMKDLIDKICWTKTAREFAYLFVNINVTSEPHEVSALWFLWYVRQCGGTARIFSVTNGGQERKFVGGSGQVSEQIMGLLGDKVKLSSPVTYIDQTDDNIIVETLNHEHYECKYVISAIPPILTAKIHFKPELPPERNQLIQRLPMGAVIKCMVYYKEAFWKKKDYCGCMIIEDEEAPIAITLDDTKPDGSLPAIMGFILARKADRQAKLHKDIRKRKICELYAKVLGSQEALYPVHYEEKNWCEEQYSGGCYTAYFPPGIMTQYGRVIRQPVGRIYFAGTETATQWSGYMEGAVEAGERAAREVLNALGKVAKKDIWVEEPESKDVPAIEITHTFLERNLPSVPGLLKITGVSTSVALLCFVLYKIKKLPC
Description: Inhibition of mitochondrial MAO-A in rat liver homogenates using [14C]-(5-hydroxy-triptamine) as substrate preincubated for 30 mins by liquid scintillation counting

[4] = target: T4, Amine oxidase [flavin-containing] B (Rattus norvegicus, UniProt P19643); assay: biochemical
T4 sequence (P19643 whole entry): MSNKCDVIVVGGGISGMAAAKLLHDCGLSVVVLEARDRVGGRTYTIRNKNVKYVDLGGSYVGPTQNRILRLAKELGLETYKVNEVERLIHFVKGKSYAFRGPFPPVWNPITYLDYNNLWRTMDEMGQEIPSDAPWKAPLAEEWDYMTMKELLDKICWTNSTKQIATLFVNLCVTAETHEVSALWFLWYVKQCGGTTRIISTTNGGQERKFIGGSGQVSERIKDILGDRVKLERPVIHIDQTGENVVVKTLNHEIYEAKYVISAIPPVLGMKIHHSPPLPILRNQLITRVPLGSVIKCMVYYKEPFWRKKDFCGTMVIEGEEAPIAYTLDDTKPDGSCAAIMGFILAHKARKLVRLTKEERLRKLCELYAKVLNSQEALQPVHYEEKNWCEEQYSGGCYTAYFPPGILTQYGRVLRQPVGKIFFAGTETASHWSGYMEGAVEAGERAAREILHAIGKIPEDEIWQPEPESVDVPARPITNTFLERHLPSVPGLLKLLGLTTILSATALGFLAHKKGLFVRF
Description: Inhibition of mitochondrial MAO-B in rat liver homogenates using [14C]-phenylethylamine as substrate preincubated for 30 mins by liquid scintillation counting

Acetylcholinesterase [5] = target: T1, Acetylcholinesterase; assay: Non-competitive inhibition of electric eel AChE using acetylthiocholine as substrate by Lineweaver-Burk plot analysis
Cholinesterase = Cholinesterase (Homo sapiens, UniProt P06276); assay: Inhibition of human serum BuChE using butyrylthiocholine iodide as substrate by Ellman's method
Chain of Cholinesterase (P06276 whole entry): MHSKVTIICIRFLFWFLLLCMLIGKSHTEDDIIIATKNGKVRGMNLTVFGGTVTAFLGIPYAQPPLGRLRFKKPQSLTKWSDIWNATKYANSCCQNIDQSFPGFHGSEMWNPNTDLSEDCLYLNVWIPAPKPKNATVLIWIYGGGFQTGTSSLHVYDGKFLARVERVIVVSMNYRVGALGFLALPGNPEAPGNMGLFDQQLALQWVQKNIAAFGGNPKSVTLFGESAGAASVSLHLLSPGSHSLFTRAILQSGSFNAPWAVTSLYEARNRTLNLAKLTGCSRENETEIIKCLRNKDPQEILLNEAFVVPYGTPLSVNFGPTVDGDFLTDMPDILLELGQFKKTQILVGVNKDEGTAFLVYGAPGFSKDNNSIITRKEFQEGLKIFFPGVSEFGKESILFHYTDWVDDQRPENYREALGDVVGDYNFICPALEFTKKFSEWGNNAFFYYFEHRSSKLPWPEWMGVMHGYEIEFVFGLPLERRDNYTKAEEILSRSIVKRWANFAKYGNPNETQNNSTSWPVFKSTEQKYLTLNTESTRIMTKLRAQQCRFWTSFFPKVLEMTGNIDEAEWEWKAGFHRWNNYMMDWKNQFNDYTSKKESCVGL

Acetylcholinesterase [6] = target: Acetylcholinesterase (Homo sapiens, UniProt P22303); assay: Inhibition of human recombinant AChE using acetylthiocholine iodide as substrate by Ellman's method
Chain of Acetylcholinesterase (Homo sapiens, UniProt P22303) (P22303 whole entry): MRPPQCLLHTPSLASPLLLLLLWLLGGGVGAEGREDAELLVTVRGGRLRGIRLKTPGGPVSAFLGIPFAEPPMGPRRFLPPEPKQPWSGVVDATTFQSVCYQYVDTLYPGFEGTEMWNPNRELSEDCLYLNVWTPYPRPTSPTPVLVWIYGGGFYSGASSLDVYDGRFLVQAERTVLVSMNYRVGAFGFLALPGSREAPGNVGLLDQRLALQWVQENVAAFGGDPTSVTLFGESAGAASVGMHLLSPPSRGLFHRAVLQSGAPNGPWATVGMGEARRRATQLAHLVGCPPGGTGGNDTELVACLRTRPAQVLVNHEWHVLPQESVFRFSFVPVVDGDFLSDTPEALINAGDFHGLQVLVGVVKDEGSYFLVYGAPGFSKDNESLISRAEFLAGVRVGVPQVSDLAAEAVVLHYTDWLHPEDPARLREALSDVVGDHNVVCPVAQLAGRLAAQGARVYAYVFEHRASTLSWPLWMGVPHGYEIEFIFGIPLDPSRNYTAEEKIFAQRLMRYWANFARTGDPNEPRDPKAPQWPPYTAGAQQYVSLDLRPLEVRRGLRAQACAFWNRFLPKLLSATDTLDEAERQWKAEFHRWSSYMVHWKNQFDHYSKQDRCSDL

Butyrylcholinesterase [7] = target: T2, Butyrylcholinesterase; assay: Competitive inhibition of equine serum BChE using acetylthiocholine as substrate by Lineweaver-Burk plot analysis

T2 sequence (Q9N1N9 whole entry): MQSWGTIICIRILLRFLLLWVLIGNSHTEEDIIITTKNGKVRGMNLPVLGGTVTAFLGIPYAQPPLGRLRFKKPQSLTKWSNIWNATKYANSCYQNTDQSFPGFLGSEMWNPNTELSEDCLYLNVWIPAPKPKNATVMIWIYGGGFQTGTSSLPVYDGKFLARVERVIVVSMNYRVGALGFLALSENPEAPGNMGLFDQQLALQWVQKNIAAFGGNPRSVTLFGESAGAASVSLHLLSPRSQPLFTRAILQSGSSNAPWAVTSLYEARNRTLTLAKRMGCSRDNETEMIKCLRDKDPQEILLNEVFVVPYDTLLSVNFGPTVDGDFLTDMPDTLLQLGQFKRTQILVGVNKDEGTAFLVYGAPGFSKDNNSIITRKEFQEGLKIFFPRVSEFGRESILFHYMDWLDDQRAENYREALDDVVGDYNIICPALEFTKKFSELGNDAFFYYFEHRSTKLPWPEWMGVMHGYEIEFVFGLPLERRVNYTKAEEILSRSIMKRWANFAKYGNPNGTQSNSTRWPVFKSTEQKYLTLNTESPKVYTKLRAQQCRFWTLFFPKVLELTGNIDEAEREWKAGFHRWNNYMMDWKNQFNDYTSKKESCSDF
T1 sequence (O42275 whole entry): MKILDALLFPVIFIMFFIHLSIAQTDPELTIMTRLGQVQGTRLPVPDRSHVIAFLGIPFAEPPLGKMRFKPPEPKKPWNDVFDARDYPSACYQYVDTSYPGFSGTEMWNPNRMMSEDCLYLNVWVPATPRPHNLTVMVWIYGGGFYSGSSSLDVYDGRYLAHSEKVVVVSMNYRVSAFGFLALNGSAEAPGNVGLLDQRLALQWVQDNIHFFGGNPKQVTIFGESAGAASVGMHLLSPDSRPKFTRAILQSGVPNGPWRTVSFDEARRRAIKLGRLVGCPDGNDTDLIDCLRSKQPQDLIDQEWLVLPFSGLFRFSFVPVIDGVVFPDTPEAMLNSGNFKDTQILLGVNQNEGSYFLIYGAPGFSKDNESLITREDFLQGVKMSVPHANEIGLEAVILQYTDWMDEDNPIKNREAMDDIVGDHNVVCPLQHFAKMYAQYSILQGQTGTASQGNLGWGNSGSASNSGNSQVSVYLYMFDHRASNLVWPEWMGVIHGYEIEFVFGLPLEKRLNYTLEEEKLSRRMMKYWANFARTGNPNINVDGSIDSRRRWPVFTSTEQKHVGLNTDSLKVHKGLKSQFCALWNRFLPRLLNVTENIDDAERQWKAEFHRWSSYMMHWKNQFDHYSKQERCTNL

C=C=CCN(C)Cc1cc2cc(OCc3ccccc3)ccc2n1C
IC50 (Acetylcholinesterase [1]): > 100000 nM
IC50 (Butyrylcholinesterase [2]): 14 µM

C#CCN1CCc2nc3nc(Cl)c(C#N)cc3c(N)c2C1
IC50 (Acetylcholinesterase [1]): 1400 nM
IC50 [3]: 1050 µM
IC50 [4]: 660 µM
IC50 (Butyrylcholinesterase [2]): > 100 µM

C#CCN1CCc2nc3nc(N4CCCCC4)c(C#N)cc3c(N)c2C1
IC50 (Acetylcholinesterase [1]): 66 nM
IC50 [3]: 330 µM
IC50 [4]: 296 µM
IC50 (Butyrylcholinesterase [2]): 10 µM

C#CCN1CCc2nc3nc(OC)c(C#N)cc3c(N)c2C1
IC50 (Acetylcholinesterase [1]): 540 nM
IC50 [3]: 495 µM
IC50 [4]: > 100 µM
IC50 (Butyrylcholinesterase [2]): > 100 µM

CNCc1cc2cc(OCc3ccccc3)ccc2n1C
IC50 (Acetylcholinesterase [1]): > 100000 nM
IC50 [3]: 99.3 µM
IC50 [4]: 44.1 µM
IC50 (Butyrylcholinesterase [2]): 11 µM

C#CCN1CCc2nc3nc(N4CCCC4)c(C#N)cc3c(N)c2C1
Ki (Acetylcholinesterase [5]): 65 nM
IC50 (Cholinesterase): 82 µM
IC50 (Acetylcholinesterase [6]): 650 nM
IC50 (Acetylcholinesterase [1]): 25 nM
IC50 [3]: 618 µM
IC50 [4]: 357 µM
IC50 (Butyrylcholinesterase [2]): 27 µM

C#CCN1CCc2nc3ccccc3c(N)c2C1
IC50 (Acetylcholinesterase [1]): 1500 nM
IC50 [3]: 241 µM
IC50 [4]: 617 µM
IC50 (Butyrylcholinesterase [2]): 6.6 µM

CC#CCN(C)Cc1cc2cc(OCc3ccccc3)ccc2n1C
IC50 (Acetylcholinesterase [1]): > 100000 nM
IC50 (Butyrylcholinesterase [2]): > 100 µM

C#CCNCc1cc2cc(OCc3ccccc3)ccc2[nH]1
IC50 (Acetylcholinesterase [1]): > 100000 nM
IC50 [4]: 0.022 µM
IC50 (Butyrylcholinesterase [2]): 43 µM

C#CCN1CCc2nc3nc(N(C)C)c(C#N)cc3c(N)c2C1
IC50 (Acetylcholinesterase [1]): 29 nM
IC50 [3]: 1000 µM
IC50 [4]: 281 µM
IC50 (Butyrylcholinesterase [2]): > 100 µM

C#CCN(C)Cc1cc2cc(OCc3ccccc3)ccc2n1C
IC50 (Acetylcholinesterase [1]): > 100000 nM
IC50 (Butyrylcholinesterase [2]): > 100 µM

C#CCN(C)Cc1cc2cc(OCc3ccccc3)ccc2[nH]1
IC50 (Acetylcholinesterase [1]): > 100000 nM
IC50 (Butyrylcholinesterase [2]): 22 µM

CC#CCN(C)Cc1cc2cc(OCc3ccccc3)ccc2[nH]1
IC50 (Acetylcholinesterase [1]): > 100000 nM
Ki (Butyrylcholinesterase [7]): 7.1 µM
IC50 (Butyrylcholinesterase [2]): 7 µM
